Data reported in patent publication US20210161174A1, “FEED ADDITIVE FOR FARMED ANIMALS” (ADISSEO FRANCE S.A.S., priority 2018, published 2021).
Marks after values point to notes of the source that are not given here.

Tests used:
[1] = Example 1: broiler performance (body weight, gain, feed intake, FCR), PQQ in diet, 0 to 49 days; assay type: in vivo, Broiler Chicken (Ross 708)
Excerpt: Study Animals: • Animal: Broiler Chicken • Breed/Strain: Ross 708 • Description: Day-of-hatch male chicks, sexed at hatchery • Sex: Male Total number of treatments: 4 Total number of replicates per treatment: 12 Total number of chicks per replicate: 40 Initial age: day-of-hatch: 0 days-of-age Final age: 7 weeks: 49 days-of-age. Feed will be changed based on the days of each phase. • Starter feed will be weighed out and fed from day 0 to 14. On day 14, non-consumed starter feed will be weighed by pen and discarded. • Grower feed will be weighed, issued and fed from day 14 until 28. On day 28, non-consumed grower feed will be weighed by pen and discarded. • Finisher feed will be weighed, issued and fed from day 28 until 42. On day 42, non-consumed finisher feed will be weighed by pen and discarded. • Withdraw feed will be weighed, issued and fed from day 42 until 49. On day 49, non-consumed finisher feed will be weighed by pen and discarded. Performance: Feed consumption and pen weights are determined on days 0, 14, 21, 28, 35, 42 and 49 to calculate average body weight (BW), body weight gain (BWG) and feed conversion ratio (FCR). Final bird weights: At the end of the grow-out period (Day 49), all birds are weighed, as well as any and all remaining feed. Randomized Complete Block Design with 4 treatments×12 replicates/treatment (40 birds/pen), randomized within blocks across the barn to minimize differences in environmental condition. The pen is the experimental unit. Dietary Treatments • Control (NC, negative control without PQQ) • 0.5 ppm PQQ • 1 ppm PQQ • 2 ppm PQQ The results are presented in the following tables 1-4 for broilers fed diets from the first week to the seventh week (corresponding to 0 to 49 days of age). The values are means and SD is standard variation. The feed conversion ratio is the ratio between feed intake and body weight gain.

[2] = Example 2: carcass, abdominal fat and yields of commercial cuts at 42 d; assay type: in vivo, Broiler Chicken (Cobb 500); details: for Abdominal fat yield / Breast fillets yield / Breast tenders yield / Drumsticks yield / Thighs yield / Wings yield: proportion of the carcass
Excerpt: Study Animals: • Animal: Broiler Chicken • Breed/Strain: Cobb 500 • Description: Day-of-hatch male chicks, sexed at hatchery • Sex: Male
Processing: On day […] (12) birds are selected from each pen for processing (at 12 reps/trt: 576 birds in total; 144 birds/trt)
Dietary Treatments • Control (NC, negative control without PQQ) • 0.2 ppm PQQ • 0.5 ppm PQQ • 1 ppm PQQ

## O=C(O)c1cc(C(=O)O)c2c(n1)C(=O)C(=O)c1cc(C(=O)O)[nH]c1-2 [PQQ, pyrroloquinoline quinone]
[1]; 0.5 ppm PQQ, wk 1
  body weight: 0.139 kg
  feed conversion ratio (FCR): 1.491
  feed intake: 0.142 kg
  weekly body weight gain: 0.095 kg
[1]; 0.5 ppm PQQ, wk 2
  body weight: 0.355 kg
  feed conversion ratio (FCR): 1.400
  feed intake: 0.299 kg
  weekly body weight gain: 0.215 kg
[1]; 0.5 ppm PQQ, wk 3
  body weight: 0.763 kg
  feed conversion ratio (FCR): 1.623
  feed intake: 0.671 kg
  weekly body weight gain: 0.414 kg
[1]; 0.5 ppm PQQ, wk 4
  body weight: 1.286 kg
  feed conversion ratio (FCR): 1.435
  feed intake: 0.796 kg
  weekly body weight gain: 0.556 kg
[1]; 0.5 ppm PQQ, wk 5
  body weight: 2.042 kg
  feed conversion ratio (FCR): 1.617
  feed intake: 1.139 kg
  weekly body weight gain: 0.688 kg
[1]; 0.5 ppm PQQ, wk 6
  body weight: 2.808 kg
  feed conversion ratio (FCR): 1.755
  feed intake: 1.346 kg
  weekly body weight gain: 0.767 kg
[1]; 0.5 ppm PQQ, wk 7
  body weight: 3.416 kg
  feed conversion ratio (FCR): 1.603
  feed intake: 0.986 kg
  weekly body weight gain: 0.622 kg
[1]; 0.5 ppm, as from the second week
  influence on the body weight: positive influence
[1]; 1.0 ppm PQQ, wk 1
  body weight: 0.145 kg
  feed conversion ratio (FCR): 1.514
  feed intake: 0.151 kg
  weekly body weight gain: 0.100 kg
[1]; 1.0 ppm PQQ, wk 2
  body weight: 0.371 kg
  feed conversion ratio (FCR): 1.418
  feed intake: 0.315 kg
  weekly body weight gain: 0.225 kg
[1]; 1.0 ppm PQQ, wk 3
  body weight: 0.790 kg
  feed conversion ratio (FCR): 1.619
  feed intake: 0.678 kg
  weekly body weight gain: 0.419 kg
[1]; 1.0 ppm PQQ, wk 4
  body weight: 1.329 kg
  feed conversion ratio (FCR): 1.427
  feed intake: 0.816 kg
  weekly body weight gain: 0.573 kg
[1]; 1.0 ppm PQQ, wk 5
  body weight: 2.112 kg
  feed conversion ratio (FCR): 1.608
  feed intake: 1.161 kg
  weekly body weight gain: 0.723 kg
[1]; 1.0 ppm PQQ, wk 6
  body weight: 2.927 kg
  feed conversion ratio (FCR): 1.741
  feed intake: 1.370 kg
  weekly body weight gain: 0.787 kg
[1]; 1.0 ppm PQQ, wk 7
  body weight: 3.612 kg
  feed conversion ratio (FCR): 1.616
  feed intake: 1.106 kg
  weekly body weight gain: 0.686 kg
[1]; 1 ppm and 2 ppm, as from the first week up to the end of the assay
  influence on the body weight: positive influence
[1]; 2.0 ppm PQQ, wk 1
  body weight: 0.146 kg
  feed conversion ratio (FCR): 1.406
  feed intake: 0.142 kg
  weekly body weight gain: 0.102 kg
[1]; 2.0 ppm PQQ, wk 2
  body weight: 0.373 kg
  feed conversion ratio (FCR): 1.414
  feed intake: 0.315 kg
  weekly body weight gain: 0.224 kg
[1]; 2.0 ppm PQQ, wk 3
  body weight: 0.794 kg
  feed conversion ratio (FCR): 1.608
  feed intake: 0.645 kg
  weekly body weight gain: 0.425 kg
[1]; 2.0 ppm PQQ, wk 4
  body weight: 1.331 kg
  feed conversion ratio (FCR): 1.469
  feed intake: 0.813 kg
  weekly body weight gain: 0.548 kg
[1]; 2.0 ppm PQQ, wk 5
  body weight: 2.065 kg
  feed conversion ratio (FCR): 1.605
  feed intake: 1.141 kg
  weekly body weight gain: 0.727 kg
[1]; 2.0 ppm PQQ, wk 6
  body weight: 2.835 kg
  feed conversion ratio (FCR): 1.741
  feed intake: 1.336 kg
  weekly body weight gain: 0.77 kg
[1]; 2.0 ppm PQQ, wk 7
  body weight: 3.472 kg
  feed conversion ratio (FCR): 1.615
  feed intake: 1.041 kg
  weekly body weight gain: 0.648 kg
[1]; as from a concentration of 1 ppm
  influence on the feed intake: has an influence on the feed intake
[2]; 0.2 ppm PQQ
  Abdominal fat weight: 26 g
  Breast fillets weight: 680 g
  Breast tenders weight: 127ab g
  Carcass yield (eviscerated carcass as a percentage of body weight): 80.3^b %
  Drumsticks weight: 467 g
  Thighs weight: 364 g
  Wings weight: 258 g
  Abdominal fat yield: 1.05%
  Breast fillets yield: 26.8%
  Breast tenders yield: 5.03^b %
  Drumsticks yield: 18.42^b %
  Thighs yield: 14.36^ab %
  Wings yield: 10.19^ab %
[2]; 0.5 ppm PQQ
  Abdominal fat weight: 28 g
  Breast fillets weight: 677 g
  Breast tenders weight: 129ab g
  Carcass yield (eviscerated carcass as a percentage of body weight): 80.4^b %
  Drumsticks weight: 473 g
  Thighs weight: 378 g
  Wings weight: 258 g
  Abdominal fat yield: 1.11%
  Breast fillets yield: 26.8%
  Breast tenders yield: 5.12^ab %
  Drumsticks yield: 18.73^ab %
  Thighs yield: 15.01^a %
  Wings yield: 10.42^a %
[2]; 1.0 ppm PQQ
  Abdominal fat weight: 23 g
  Breast fillets weight: 702 g
  Breast tenders weight: 134a g
  Carcass yield (eviscerated carcass as a percentage of body weight): 80.3^b %
  Drumsticks weight: 486 g
  Thighs weight: 366 g
  Wings weight: 259 g
  Abdominal fat yield: 0.90%
  Breast fillets yield: 27.4%
  Breast tenders yield: 5.22^a %
  Drumsticks yield: 18.89^a %
  Thighs yield: 14.24^b %
  Wings yield: 10.05^ab %
